Tested on: autologous dog kidney transplant model for IRI
Experiment: Autologous dog kidney transplant model for ischaemia reperfusion injury (IRI)
Assay type: in vivo
Procedure: An autologous dog kidney transplant model for IRI was developed (FIG. 1). The right kidney was removed from a dog at day 0 of the study and was exposed to cold ischemia for 32 hours. After exposure to cold ischemia, the right kidney developed IRI. Subsequently, in an autotransplant, the right kidney was implanted, and the left kidney was removed. Defibrotide was administered to the dog prior to transplant and after transplant four times per day for 7 days at doses of 3 mg/kg, 10 mg/kg, or 25 mg/kg. Clinical endpoints were evaluated, including bleeding at the anastomosis site, coagulation, renal function labs, serum creatinine, blood urea nitrogen (BUN), histopathology at sacrifice, and the measurement of biomarkers, including endothelin-1, Kim-1, ICAM-1, E-selectin, t-PA, PAI-1, Thrombomodulin, IL-6, TNF-α, MCP-1, and A2M.
The gross dog kidney morphology was evaluated at the termination of the study.
The creatinine level, a marker of renal function, was measured pre-transplant and post-transplant after treatment with saline control, 3 mg/kg, 10 mg/kg, or 25 mg/kg of defibrotide. […] Each curve represents a different dog.

**Q.** defibrotide was tested. Which “severity of hemorrhage after IRI (FIG. 2, dose response)” value (after higher doses of defibrotide, saline control) did it give?
**A.** the severity of hemorrhage lessened

**Q.** What about the “creatinine levels (marker of renal function, FIG. 3)” value (after six days of defibrotide, 3, 10 or 25 mg/kg, post-transplant) of the same substance?
**A.** decreased to levels just above normal

**Q.** And the “hemorrhage, gross dog kidney morphology at the termination of the study” value (higher doses of defibrotide (3, 10 or 25 mg/kg, four times per day for 7 days), kidney exposed to cold ischemia for 32 hours)?
**A.** Minimal hemorrhage

**Q.** What about the “renal function post IRI” value (higher doses of defibrotide, after transplant) of the same substance?
**A.** improved renal function

Source: US20230086833A1, “DEFIBROTIDE TREATMENT FOR THE PREVENTION OF ORGAN REJECTION AND INJURY” (Jazz Pharmaceuticals Ireland Limited, priority 2020, published 2023)
